Results taken from US10766888B1, “HMOX1 inducers” (Mitobridge Inc., priority 2019, dated 2020).
Converted amounts (≈) assume the structure as drawn.

Key:
[1] = tested on: Human Heme Oxygenase-1 (HMOX-1); experiment: ELISA assay to measure human heme oxygenase-1 (HMOX-1) in HepG2 lysate; type: cell-based; conditions: for EC50: human HMOX1 protein level in HepG2 lysate, * = average of 2 or more EC50 determinations, NA = Not Active, read-out: EC50
How it was run: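 Treated HepG2 cells were lysed in PBS with 0.5% Triton X100, 1 mM EDTA and protease inhibitors, and lysates were diluted 1:20. HO-1 was measured by sandwich ELISA (biotinylated detection antibody, streptavidin-HRP, chemiluminescence) at room temperature against a standard curve from 20 ng/ml. EC50 and fold change were expressed relative to DMSO control.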

hERG channel = hERG channel (Homo sapiens, UniProt Q12809); experiment: hERG manual patch clamp assay; type: cell-based; conditions: HEK 293 cells stably expressing hERG channel, pH 7.35, 10 μM compound
Sequence of hERG channel (Q12809 whole entry): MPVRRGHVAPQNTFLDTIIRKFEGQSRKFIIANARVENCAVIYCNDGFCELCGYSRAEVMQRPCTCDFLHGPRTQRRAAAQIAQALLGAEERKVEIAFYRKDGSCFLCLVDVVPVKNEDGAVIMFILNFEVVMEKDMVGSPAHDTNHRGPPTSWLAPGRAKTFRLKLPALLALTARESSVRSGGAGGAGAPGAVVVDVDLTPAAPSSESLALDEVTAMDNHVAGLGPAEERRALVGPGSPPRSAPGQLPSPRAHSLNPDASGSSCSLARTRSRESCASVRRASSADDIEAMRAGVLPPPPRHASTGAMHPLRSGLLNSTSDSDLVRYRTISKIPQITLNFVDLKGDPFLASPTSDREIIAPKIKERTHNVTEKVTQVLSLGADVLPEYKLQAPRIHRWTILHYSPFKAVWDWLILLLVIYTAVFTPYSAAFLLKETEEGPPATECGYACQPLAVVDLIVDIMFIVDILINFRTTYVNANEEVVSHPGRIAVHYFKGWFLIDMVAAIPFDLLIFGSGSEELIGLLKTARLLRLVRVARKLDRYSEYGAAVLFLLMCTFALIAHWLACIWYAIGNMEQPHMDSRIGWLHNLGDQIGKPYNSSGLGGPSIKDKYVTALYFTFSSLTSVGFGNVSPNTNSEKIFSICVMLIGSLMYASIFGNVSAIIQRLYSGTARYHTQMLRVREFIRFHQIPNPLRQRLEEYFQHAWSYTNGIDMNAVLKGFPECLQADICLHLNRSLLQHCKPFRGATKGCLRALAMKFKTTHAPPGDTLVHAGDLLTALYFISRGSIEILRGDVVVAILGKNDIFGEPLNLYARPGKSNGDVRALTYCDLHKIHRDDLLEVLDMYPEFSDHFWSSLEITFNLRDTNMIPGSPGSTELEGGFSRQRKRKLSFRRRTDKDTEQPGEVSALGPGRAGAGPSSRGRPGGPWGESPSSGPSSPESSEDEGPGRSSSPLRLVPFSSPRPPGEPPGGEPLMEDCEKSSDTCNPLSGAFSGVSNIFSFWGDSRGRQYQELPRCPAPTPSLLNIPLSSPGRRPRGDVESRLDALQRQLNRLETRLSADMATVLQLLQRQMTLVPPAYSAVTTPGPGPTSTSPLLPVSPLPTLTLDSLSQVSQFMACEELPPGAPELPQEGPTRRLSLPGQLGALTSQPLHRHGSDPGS
Description: Cell Lines and Cell Culture
HEK 293 cell line stably expressing hERG channel (Cat # K1236) was purchased from Invitrogen. The cells were cultured in 85% DMEM, 10% dialyzed FBS, 0.1 mM NEAA, 25 mM HEPES, 100 U/mL Penicillin-Streptomycin and 5 μg/mL Blasticidin and 400 μg/mL Geneticin. Cells were split using TrypLE™ Express about three times a week, and maintained between ˜40% to ˜80% confluence. Before the assay, the cells were transferred onto the coverslips at 5×10^5 cells/per 6 cm cell culture dish and induced with doxycycline at 1 μg/mL for 48 hours.
• 1) External solution (in mM): 132 NaCl, 4 KCl, 3 CaCl2, 0.5 MgCl2, 11.1 glucose, and 10 HEPES (pH adjusted to 7.35 with NaOH) • 2) Internal solution (in mM): 140 KCl, 2 MgCl2, 10 EGTA, 10 HEPES and 5 MgATP (pH adjusted to 7.35 with KOH) • 3) hERG currents were tested in presence of 10 μM compound concentration with final concentration of DMSO of 0.1%. Experimental Procedure • 1) Removed the coverslip from the cell culture dish and placed it on the microscope stage in bath chamber. • 2) Located a desirable cell using the 10× objective. Located the tip of the electrode under the microscope using the 10× objective by focusing above the plane of the cells. Once the tip was in focus, advanced the electrode downwards towards the cell using the coarse controls of the manipulator, while simultaneously moving the objective to keep the tip in focus. • 3) When directly over the cell, switched to the 40× objective and used the fine controls of the manipulator to approach the surface of the cell in small steps. • 4) Applied gentle suction through the side-port of the electrode holder to form a gigaohm seal. • 5) Used the Cfast to remove the capacity current that was in coincidence with the voltage step. Obtained the whole cell configuration by applying repetitive, brief, strong suction until the membrane patch ruptured. • 6) Set membrane potential to −60 mV at this point to ensure that hERG channels were not • open. The spikes of capacity current should then be cancelled using the Cslow on the amplifier. 7) Set holding potential to −90 mV for 500 ms; recorded current at 50 kHz and filtered at 10 kHz. Leaking current was tested at −80 mV for 500 ms. • 8) The hERG current was elicited by depolarizing at +30 mV for 4.8 seconds and then the voltage was taken back to −50 mV for 5.2 seconds to remove the inactivation and observe the deactivating tail current. The maximum amount of tail current size was used to determine hERG current amplitude. • 9) Recorded current for 120 seconds to assess the current stability. Only stable cells with recording parameters above threshold were applied for the compound administrations. • 10) Firstly vehicle control was applied to the cells to establish the baseline. […] In order to ensure the good performance of cultured cells and operations, the positive control, Dofetilide, with 5 dose concentration was also used to test the same batch of cells. Data Analysis
The following criteria were used to determine data acceptability. • 1) Initial seal resistance >1 GΩ; • 2) Leak currents <50% of the control peak tail currents at any time; • 3) The peak tail amplitude >250 pA; • 4) Membrane resistance Rm>500 MΩ; • 5) Access resistance (Ra)<10 MΩ; • 6) Apparent run-down of peak current <2.5% per min.
Data that met the above criteria for hERG current quality were further analyzed as the following steps. • 1) Percent hERG current inhibition was calculated using the following equation. • Note: PatchMaster or Clampfit software was used to extract the peak current from the original data.
[formula] • 2) The dose response curve of test compounds was plotted with percentage of hERG current inhibition against the concentration of test compounds using Graphpad Prism 6.0, and fit to a sigmoid dose-response curve with a variable slope.

Kinetic solubility = type: physicochemical; conditions: Dulbecco's phosphate buffer saline (DPBS), aqueous buffer, kinetic from dmso stock, DPBS pH 7.4, 25° C., 200 μM test compound
How it was run: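 Compound from 10 mM DMSO stock diluted to 200 μM final in DPBS pH 7.4 and, separately, in DMSO, in duplicate. Shaken 16 h at 25 °C, then centrifuged 20 min at 25 °C. Supernatant analysed by HPLC.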

Row | Compound | EC50 [1] [µM] | solubility at 16 h (Kinetic solubility) [µM] | Maximum Fold induction ([1]; fold change of human HMOX1 protein level relative to DMSO control, HepG2) [fold] | inhibition at 10 µM (hERG channel) [%]
1 | CC(O)CNC(=O)c1ccc2c(c1)nc(Nc1nc3ccccc3o1)n2C (centres unmarked) [Example 23, 2-(benzo[d]oxazol-2-ylamino)-N-(2-hydroxypropyl)-1-methyl-1H-benzo[d]imidazole-5-carboxamide] | 2.1 | > 20 | – | 24
2 | CN(C)CC(=O)NCCONC(=O)c1ccc2c(c1)nc(Nc1nc3ccccc3o1)n2C [Example 121, 2-(benzo[d]oxazol-2-ylamino)-N-(2-(2-(dimethylamino)acetamido)ethoxy)-1-methyl-1H-benzo[d]imidazole-5-carboxamide] | 1.4 | 9 (≈ 4.06 µg/mL) | – | 66
3 | CC(O)COCCNC(=O)c1ccc2c(c1)nc(Nc1nc3ccccc3o1)n2C (centres unmarked) [Example 25] | 2.2 | 6.1 (≈ 2.5 µg/mL) | – | 8
4 | Cn1c(Nc2nc3ccc(N4CCCC4)cc3o2)nc2cc(C(=O)NCCOCCO)ccc21 [Example 137, N-(2-(2-hydroxyethoxy)ethyl)-1-methyl-2-((6-(pyrrolidin-1-yl)benzo[d]oxazol-2-yl)amino)-1H-benzo[d]imidazole-5-carboxamide] | 1.3 | 6.9 (≈ 3.21 µg/mL) | – | 18
5 | Cn1c(Nc2nc3ccc(OC(F)F)cc3o2)nc2cc(C(=O)O)ccc21 [Example 62, 2-((6-(difluoromethoxy)benzo[d]oxazol-2-yl)amino)-1-methyl-1H-benzo[d]imidazole-5-carboxylic acid] | 5.1 | 16.2 (≈ 6.06 µg/mL) | – | 13
6 | CN(C)CC(=O)NCCNC(=O)c1ccc2c(c1)nc(Nc1nc3ccccc3o1)n2C [Example 19, 2-(benzo[d]oxazol-2-ylamino)-N-(2-(2-(dimethylamino)acetamido)ethyl)-1-methyl-1H-benzo[d]imidazole-5-carboxamide] | 1.8 | – | – | 29
7 | Cn1c(Nc2nc3ccccc3o2)nc2cc(C(=O)NCCN3CCCC3)ccc21 [Example 28, 2-(benzo[d]oxazol-2-ylamino)-1-methyl-N-(2-(pyrrolidin-1-yl)ethyl)-1H-benzo[d]imidazole-5-carboxamide] | 1.6 | 11.3 (≈ 4.57 µg/mL) | – | 64
8 | Cn1c(Nc2nc3ccccc3o2)nc2cc(C(=O)NCCN3CCOCC3)ccc21 [Example 20, 2-(benzo[d]oxazol-2-ylamino)-1-methyl-N-(2-morpholinoethyl)-1H-benzo[d]imidazole-5-carboxamide] | 1 | 7.3 (≈ 3.07 µg/mL) | – | 59
9 | COCCOc1ccc2nc(Nc3nc4cc(C(=O)NOCCO)ccc4n3C)oc2c1 [Example 128, N-(2-hydroxyethoxy)-2-((6-(2-methoxyethoxy)benzo[d]oxazol-2-yl)amino)-1-methyl-1H-benzo[d]imidazole-5-carboxamide] | 1.2 | 4.7 (≈ 2.07 µg/mL) | – | 18
10 | Cn1c(Nc2nc3ccccc3o2)nc2cc(C(=O)NCCO)ccc21 [Example 16, 2-(benzo[d]oxazol-2-ylamino)-N-(2-hydroxyethyl)-1-methyl-1H-benzo[d]imidazole-5-carboxamide] | 0.7 | 11.7 (≈ 4.11 µg/mL) | – | 35
11 | Cn1c(Nc2nc3ccc(C(F)(F)F)cc3o2)nc2cc(C(=O)O)ccc21 [Example 31, 1-methyl-2-((6-(trifluoromethyl)benzo[d]oxazol-2-yl)amino)-1H-benzo[d]imidazole-5-carboxylic acid] | 1.1 | 14.9 (≈ 5.61 µg/mL) | – | 0
12 | Cn1c(Nc2nc3ccccc3o2)nc2cc(C(=O)NCC3(O)COC3)ccc21 [Example 26, 2-(benzo[d]oxazol-2-ylamino)-N-((3-hydroxyoxetan-3-yl)methyl)-1-methyl-1H-benzo[d]imidazole-5-carboxamide] | 2 | 8.6 (≈ 3.38 µg/mL) | – | 18
13 | CC1CCc2nc(Nc3nc4cc(C(=O)NCCOCCO)ccc4n3C)sc2C1 (centres unmarked) [Ex 7, N-(2-(2-hydroxyethoxy)ethyl)-1-methyl-2-((6-methyl-4,5,6,7-tetrahydrobenzo[d]thiazol-2-yl)amino)-1H-benzo[d]imidazole-5-carboxamide] | – | – | – | 6
14 | CN(C)CCONC(=O)c1ccc2c(c1)nc(Nc1nc3ccccc3o1)n2C [Example 123, 2-(benzo[d]oxazol-2-ylamino)-N-(2-(dimethylamino)ethoxy)-1-methyl-1H-benzo[d]imidazole-5-carboxamide] | – | 10.5 (≈ 4.14 µg/mL) | – | 54

More lines, main results first:

Row | EC50 [1] [µM] | solubility at 16 h (Kinetic solubility) [µM] | Maximum Fold induction ([1]; fold change of human HMOX1 protein level relative to DMSO control, HepG2) [fold] | Compound | inhibition at 10 µM (hERG channel) [%]
15 | 0.4 | 5.1 (≈ 2.36 µg/mL) | – | CN(C)CCONC(=O)c1ccc2c(c1)nc(Nc1nc3ccc(C(F)(F)F)cc3o1)n2C [Example 122, N-(2-(dimethylamino)ethoxy)-1-methyl-2-((6-(trifluoromethyl)benzo[d]oxazol-2-yl)amino)-1H-benzo[d]imidazole-5-carboxamide] | 87
16 | 0.66 | < 5 | – | COCCNC(=O)c1ccc2c(c1)nc(Nc1nc3ccc(F)cc3o1)n2C [Example 69, 2-((6-fluorobenzo[d]oxazol-2-yl)amino)-N-(2-methoxyethyl)-1-methyl-1H-benzo[d]imidazole-5-carboxamide] | 38
17 | 2.9 | – | – | Cn1c(Nc2nc3cc(F)ccc3[nH]2)nc2cc(C(=O)O)ccc21 [Example 73, 2-((5-fluoro-1H-benzo[d]imidazol-2-yl)amino)-1-methyl-1H-benzo[d]imidazole-5-carboxylic acid] | 5
18 | 1.3 | 7.1 (≈ 3.19 µg/mL) | – | CCn1c(Nc2nc3ccc(OC(F)(F)F)cc3o2)nc2cc(C(=O)NCCO)ccc21 [Example 86, 1-ethyl-N-(2-hydroxyethyl)-2-((6-(trifluoromethoxy)benzo[d]oxazol-2-yl)amino)-1H-benzo[d]imidazole-5-carboxamide] | 64
19 | 2.3 | 4.2 (≈ 1.88 µg/mL) | 6.25 | COCCNC(=O)c1ccc2c(c1)nc(Nc1nc3cc(OC(F)(F)F)ccc3[nH]1)n2C [Example 14, N-(2-methoxyethyl)-1-methyl-2-((5-(trifluoromethoxy)-1H-benzo[d]imidazol-2-yl)amino)-1H-benzo[d]imidazole-5-carboxamide] | 87
20 | 1.2 | 11.2 (≈ 4.76 µg/mL) | – | COCCOc1ccc2nc(Nc3nc4cc(C(=O)NCCO)ccc4n3C)oc2c1 [Example 57, N-(2-hydroxyethyl)-2-((6-(2-methoxyethoxy)benzo[d]oxazol-2-yl)amino)-1-methyl-1H-benzo[d]imidazole-5-carboxamide] | 15
21 | 1.1 | 7.3 (≈ 3.18 µg/mL) | – | Cn1c(Nc2nc3ccc(OC(F)(F)F)cc3o2)nc2cc(C(=O)NCCO)ccc21 [Example 53, N-(2-hydroxyethyl)-1-methyl-2-((6-(trifluoromethoxy)benzo[d]oxazol-2-yl)amino)-1H-benzo[d]imidazole-5-carboxamide] | 70
